Test system: LDLR mRNA expression in HepG2 cells
Test: LDLR mRNA expression in HepG2 cells, quantitative real-time RT-PCR (Example 7)
Assay type: cell-based, human
Conditions: dose less than or equal to 10 μM, 24 hours
Method: In yet another experiment, HepG2 cells were treated with various compounds for 24 hours at the indicated doses. Total RNA was isolated and 2 μg was used to generate cDNA in a reaction containing random primers and M-MLV at 37° C. for 1 hour in a volume of 25 μL. Real-time PCR was performed on the cDNA using MCEP REALPLEX 2 SYSTEM (Eppendorf) and Universal MasterMix (Applied Biosystems). Human LDLR and GAPDH Pre-Developed TaqMan Assay Reagents (Applied Biosystems) were used to assess the levels of mRNA expressions in HepG2. The levels of LDLR mRNA were normalized to that of GAPDH. Each RNA samples was assayed in triplicate. The abundance of LDLR mRNA in untreated cells was defined as 1, and the amounts of LDLR mRNA from compound-treated cells were plotted relative to that value in FIG. 2B. The data shown are mean±s.d.
Activities of some compounds of Formulas I, II and EE on LDLR mRNA expression were determined. HepG2 cells were treated with new compounds individually at a dose less than or equal to 10 μM for 24 hours. […] In these experiments, berberine chloride was included for comparison.

| Compound | Activity on LDLR mRNA expression (Fold of control) |
| --- | --- |
| COc1ccc2c(c1OS(=O)(=O)c1ccc(-c3ccccc3)cc1)CN1CCc3cc4c(cc3C1C2)OCO4 (centres unmarked) [Compound 37, 10-methoxy-5,6,7,8,13,13a-hexahydro-2H-1,3-dioxolano[4,5-g]isoquinolino[3,2-a]isoquinolin-9-yl 4-phenylbenzenesulfonate] | 2.47 ± 0.07 Fold of control |
| CCOC(=O)Oc1c(OC)ccc2c1CN1CCc3cc4c(cc3C1C2)OCO4 (centres unmarked) [Compound 48, 10-methoxy-5,6,7,8,13,13a-hexahydro-2H-1,3-dioxolano[4,5-g]isoquinolino[3,2-a]isoquinolin-9-yl ethoxyformate] | 1.45 ± 0.15 Fold of control |
| COc1ccc2c(c1OS(=O)(=O)c1ccccc1F)CN1CCc3cc4c(cc3C1C2)OCO4 (centres unmarked) [Compound 51, 10-methoxy-5,6,7,8,13,13a-hexahydro-2H-1,3-dioxolano[4,5-g]isoquinolino[3,2-a]isoquinolin-9-yl 2-fluorobenzenesulfonate] | 3.79 ± 0.33 Fold of control |
| COc1ccc2c(c1OS(=O)(=O)c1cccc(F)c1)CN1CCc3cc4c(cc3C1C2)OCO4 (centres unmarked) [Compound 52, 10-methoxy-5,6,7,8,13,13a-hexahydro-2H-1,3-dioxolano[4,5-g]isoquinolino[3,2-a]isoquinolin-9-yl 3-fluorobenzenesulfonate] | 3.63 ± 0.17 Fold of control |
| COc1ccc2c(c1OS(=O)(=O)c1ccc(F)c(F)c1)CN1CCc3cc4c(cc3C1C2)OCO4 (centres unmarked) [Compound 53, 10-methoxy-5,6,7,8,13,13a-hexahydro-2H-1,3-dioxolano[4,5-g]isoquinolino[3,2-a]isoquinolin-9-yl 3,4-difluorobenzenesulfonate] | 3.96 ± 0.40 Fold of control |
| COc1ccc2c(c1OS(=O)(=O)c1ccc(C)cc1)CN1CCc3cc4c(cc3C1C2)OCO4 (centres unmarked) [Compound 57, 10-methoxy-5,6,7,8,13,13a-hexahydro-2H-1,3-dioxolano[4,5-g]isoquinolino[3,2-a]isoquinolin-9-yl 4-methylbenzenesulfonate] | 2.62 ± 0.17 Fold of control |
| COc1ccc2c(c1OS(=O)(=O)c1ccc(F)cc1)CN1CCc3cc4c(cc3C1C2)OCO4 (centres unmarked) [Compound 58, 10-methoxy-5,6,7,8,13,13a-hexahydro-2H-1,3-dioxolano[4,5-g]isoquinolino[3,2-a]isoquinolin-9-yl 4-fluorobenzenesulfonate] | 3.90 ± 0.01 Fold of control |
| COc1ccc2c(c1OS(=O)(=O)c1ccc(F)cc1F)CN1CCc3cc4c(cc3C1C2)OCO4 (centres unmarked) [Compound 59, 10-methoxy-5,6,7,8,13,13a-hexahydro-2H-1,3-dioxolano[4,5-g]isoquinolino[3,2-a]isoquinolin-9-yl 2,4-difluorobenzenesulfonate] | 3.73 ± 0.10 Fold of control |
| COc1ccc2c(c1OS(=O)(=O)c1cccc(C)c1)CN1CCc3cc4c(cc3C1C2)OCO4 (centres unmarked) [Compound 60, 10-methoxy-5,6,7,8,13,13a-hexahydro-2H-1,3-dioxolano[4,5-g]isoquinolino[3,2-a]isoquinolin-9-yl 3-methylbenzenesulfonate] | 3.46 ± 0.75 Fold of control |
| COc1ccc2c(c1OC(=O)Nc1ccccc1)CN1CCc3cc4c(cc3C1C2)OCO4 (centres unmarked) [Compound 61, (10-methoxy(5,6,7,8,13,13a-hexahydro-2H-1,3-dioxolano[4,5-g]isoquinolino[3,2-a]isoquinolin-9-yloxy))-N-benzamide] | 1.33 ± 0.53 Fold of control |
| COc1ccc2c(c1OS(=O)(=O)c1cccc([N+](=O)[O-])c1)CN1CCc3cc4c(cc3C1C2)OCO4 (centres unmarked) [Compound 63, 10-methoxy-5,6,7,8,13,13a-hexahydro-2H-1,3-dioxolano[4,5-g]isoquinolino[3,2-a]isoquinolin-9-yl 3-nitrobenzenesulfonate] | 2.94 ± 0.13 Fold of control |
| COc1cc2c(cc1OC)C1Cc3ccc(OC)c(OCc4ccccc4)c3CN1CC2 (centres unmarked) [Compound 64, 2,3,10-trimethoxy-9-(phenylmethoxy)-5,6,7,8,13,13a-hexahydroisoquinolino[3,2-a]isoquinoline] | 2.82 ± 0.45 Fold of control |
| COc1ccc2c(c1OS(=O)(=O)c1ccc([N+](=O)[O-])cc1)CN1CCc3cc4c(cc3C1C2)OCO4 (centres unmarked) [Compound 65, 10-methoxy-5,6,7,8,13,13a-hexahydro-2H-1,3-dioxolano[4,5-g]isoquinolino[3,2-a]isoquinolin-9-yl 4-nitrobenzenesulfonate] | 2.58 ± 0.46 Fold of control |
| COc1ccc2c(c1OS(=O)(=O)c1cccc3cccnc13)CN1CCc3cc4c(cc3C1C2)OCO4 (centres unmarked) [Compound 66, 10-methoxy-5,6,7,8,13,13a-hexahydro-2H-1,3-dioxolano[4,5-g]isoquinolino[3,2-a]isoquinolin-9-yl quinoline-8-sulfonate] | 2.54 ± 0.06 Fold of control |
| COc1ccc2c(c1OS(=O)(=O)c1ccc(C(F)(F)F)cc1)CN1CCc3cc4c(cc3C1C2)OCO4 (centres unmarked) [Compound 85, 9-(4-trifluoromethyl-benzenesulfonyloxy)-10-methoxy-5,8,13,13a-tetrahydro-6H-[1,3]dioxolo[4,5-g]isoquino[3,2-a]isoquinoline] | 1.42 ± 0.30 Fold of control |
| COc1ccc(S(=O)(=O)Oc2c(OC)ccc3c2CN2CCc4cc5c(cc4C2C3)OCO5)cc1OC (centres unmarked) [Compound 86, 9-(3,4-dimethoxy-benzenesulfonyloxy)-10-methoxy-5,8,13,13a-tetrahydro-6H-[1,3]dioxolo[4,5-g]isoquino[3,2-a]isoquinoline] | 2.48 ± 0.62 Fold of control |
| COc1ccc2c(c1OCCN1CCOCC1)CN1CCc3cc4c(cc3C1C2)OCO4 (centres unmarked) [Compound 88, 9-O-2-(1′-morpholine-ethyl)-10-methoxy-5,8,13,13a-tetrahydro-6H-[1,3]dioxolo[4,5-g]isoquino[3,2-a]isoquinoline] | 1.93 ± 0.24 Fold of control |
| COc1ccc2c(c1OS(=O)(=O)c1cccc3c(N(C)C)cccc13)CN1CCc3cc4c(cc3C1C2)OCO4 (centres unmarked) [Compound 89, 10-methoxy-5,6,7,8,13,13a-hexahydro-2H-1,3-dioxolano [4,5-g]isoquinolino[3,2-a] isoquinolin-9-yl 5-(dimethylamino)naphthalene-sulfonate] | 1.92 ± 0.40 Fold of control |
| COc1ccc2c(c1OS(=O)(=O)C(F)(F)F)CN1CCc3cc4c(cc3C1C2)OCO4 (centres unmarked) [Compound 90, 10-methoxy-5,6,7,8,13,13a-hexahydro-2H-1,3-dioxolano[4,5-g] isoquinolino[3,2-a] isoquinolin-9-yl (trifluoromethyl)sulfonate] | 1.21 ± 0.07 Fold of control |
| COc1ccc2c(c1)CN1CCc3cc4c(cc3C1C2)OCO4 (centres unmarked) [Compound 92, 10-methoxy-5,6,7,8,13,13a-hexahydro-2H-1,3-dioxolano[4,5-g]isoquinolino[3,2-a]isoquinoline] | 1.52 ± 0.07 Fold of control |
| COc1ccc2c(c1OS(=O)(=O)c1sc(NC(C)=O)nc1C)CN1CCc3cc4c(cc3C1C2)OCO4 (centres unmarked) [Compound 93, 10-methoxy-5,6,7,8,13,13a-hexahydro-2H-1,3-dioxolano [4,5-g]isoquinolino[3,2-a]isoquinolin-9-yl 2-(acetylamino)-4-methyl-1,3-thiazole-5-sulfonate] | 1.42 ± 0.16 Fold of control |
| COc1ccc2c(c1Oc1ncc([N+](=O)[O-])cc1C)CN1CCc3cc4c(cc3C1C2)OCO4 (centres unmarked) [Compound 94, 10-methoxy-9-(3-methyl-5-nitro(2-pyridyl)oxy)-5,6,7,8,13,13a-hexahydro-2H-1,3-dioxolano[4,5-g]isoquinolino[3,2-a]isoquinoline] | 1.22 ± 0.18 Fold of control |
| COc1cc2c(cc1OCc1ccccc1)CCN1Cc3c(ccc(OC)c3OS(=O)(=O)c3ccccc3)CC21 (centres unmarked) [Compound 95, 2,10-dimethoxy-3-(phenylmethoxy)-5,6,7,8,13,13a-hexahydroisoquinolino[2,1-b]isoquinolin-9-yl benzenesulfonate] | 1.43 ± 0.04 Fold of control |
| COc1ccc2c(c1Oc1ccc([N+](=O)[O-])cn1)CN1CCc3cc4c(cc3C1C2)OCO4 (centres unmarked) [Compound 96, 10-methoxy-9-(5-nitro(2-pyridyl)oxy)-5,6,7,8,13,13a-hexahydro-2H-1,3-dioxolano [4,5-g]isoquinolino[3,2-a]isoquinoline] | 1.33 ± 0.05 Fold of control |
| COc1ccc2c(c1Oc1ncc(N)cc1C)CN1CCc3cc4c(cc3C1C2)OCO4 (centres unmarked) [Compound 100, 6-(10-methoxy(5,6,7,8,13,13a-hexahydro-2H-1,3-dioxolano[4,5-g]isoquinolino[3,2-a]isoquinolin-9-yloxy))-5-methyl-3-pyridylamine] | 1.44 ± 0.59 Fold of control |
| COc1ccc2c(c1OS(=O)(=O)c1cccnc1)CN1CCc3cc4c(cc3C1C2)OCO4 (centres unmarked) [Compound 101, 10-methoxy-5,6,7,8,13,13a-hexahydro-2H-1,3-dioxolano [4,5-g]isoquinolino[3,2-a]isoquinolin-9-yl pyridine-3-sulfonate] | 1.97 ± 0.00 Fold of control |
